Source: ChEMBL document CHEMBL1144281, “Inhibitors of type I MetAPs containing pyridine-2-carboxylic acid thiazol-2-ylamide. Part 2: SAR studies on the pyridine ring 3-substituent” (Bioorg Med Chem Lett, 2005)

What was measured:
[1] = Inhibitory concentration against Methionine aminopeptidase-1 (ScMetAP1); design: species or system Saccharomyces cerevisiae
[2] = Inhibitory concentration against Methionine aminopeptidase-1 (EcMetAP1); design: species or system Escherichia coli

Row | Compound | IC50 [1] | IC50 [2]
1 | C=CCCC(=O)Nc1cccnc1C(=O)Nc1nccs1 | 12200 nM | 510 nM
2 | C=CCC(=O)Nc1cccnc1C(=O)Nc1nccs1 | 380 nM | 130 nM
3 | O=C(CC1=CCCCC1)Nc1cccnc1C(=O)Nc1nccs1 | 8910 nM | 120 nM
4 | C=C(C)CC(=O)Nc1cccnc1C(=O)Nc1nccs1 | 4670 nM | 150 nM
5 | O=C(O)C(=O)Nc1cccnc1C(=O)Nc1nccs1 | > 100000 nM | 620 nM
6 | NCC(=O)Nc1cccnc1C(=O)Nc1nccs1 | 210 nM | 92 nM
7 | CCN(CC)CC(=O)Nc1cccnc1C(=O)Nc1nccs1 | 230 nM | 49 nM
8 | O=C(CC1=CCCC1)Nc1cccnc1C(=O)Nc1nccs1 | 5070 nM | 190 nM
9 | CCOC(=O)CC(=O)Nc1cccnc1C(=O)Nc1nccs1 | 720 nM | 75 nM
10 | C=CC(=O)Nc1cccnc1C(=O)Nc1nccs1 | 620 nM | > 100000 nM
11 | CC(C)=CC(=O)Nc1cccnc1C(=O)Nc1nccs1 | 770 nM | 220 nM
12 | CC(C)(C)OC(=O)NCC(=O)Nc1cccnc1C(=O)Nc1nccs1 | 380 nM | 49 nM
13 | CC1(C)OC1CCC(=O)Nc1cccnc1C(=O)Nc1nccs1 (centres undefined) | 3300 nM | 560 nM
14 | O=C(Nc1nccs1)c1ncccc1NC(=O)C1CCCC1 | 2580 nM | 350 nM
15 | O=C(Nc1cccnc1C(=O)Nc1nccs1)C1=CCCC1 | 5170 nM | 360 nM
16 | O=C(Nc1nccs1)c1ccccn1 | 7000 nM | 5000 nM
17 | O=C(Nc1nccs1)c1ncccc1NC(=O)C1CC=CCC1 (centres undefined) | 15100 nM | 810 nM
18 | CC(C)=CCCC(=O)Nc1cccnc1C(=O)Nc1nccs1 | 310 nM | 610 nM
19 | O=C(CN1CCCCC1)Nc1cccnc1C(=O)Nc1nccs1 | 190 nM | 53 nM

Row | Compound | IC50 [1] | IC50 [2]
20 | CCOC(=O)C(=O)Nc1cccnc1C(=O)Nc1nccs1 | 770 nM | 50 nM
21 | CC(C)(C)OC(=O)NCCC(=O)Nc1cccnc1C(=O)Nc1nccs1 | 150 nM | 49 nM
22 | O=C(O)CC(=O)Nc1cccnc1C(=O)Nc1nccs1 | 1520 nM | 140 nM
23 | O=C(Nc1cccnc1C(=O)Nc1nccs1)c1cccnc1 | 330 nM | 60 nM
24 | O=C(O)c1ccccc1C(=O)Nc1cccnc1C(=O)Nc1nccs1 | 2270 nM | 330 nM
25 | O=C(Nc1nccs1)c1ncccc1NC(=O)C1CC1 | 2560 nM | 130 nM
26 | CN(C)CC(=O)Nc1cccnc1C(=O)Nc1nccs1 | 420 nM | 120 nM
27 | O=C(CN(O)c1ccccc1)Nc1cccnc1C(=O)Nc1nccs1 | 230 nM | 57 nM
28 | NCCC(=O)Nc1cccnc1C(=O)Nc1nccs1 | 130 nM | 74 nM
29 | O=C(CN1CCCC1)Nc1cccnc1C(=O)Nc1nccs1 | 150 nM | 90 nM
30 | CC1(C)OC1CC(=O)Nc1cccnc1C(=O)Nc1nccs1 (centres undefined) | 3370 nM | 700 nM
31 | O=C(CC1CCCC1)Nc1cccnc1C(=O)Nc1nccs1 | 6720 nM | 790 nM
32 | O=C(CN1CCOCC1)Nc1cccnc1C(=O)Nc1nccs1 | 510 nM | 59 nM
33 | O=C(O)CCC(=O)Nc1cccnc1C(=O)Nc1nccs1 | 2270 nM | 140 nM
34 | C/C=C/C(=O)Nc1cccnc1C(=O)Nc1nccs1 | 820 nM | > 100000 nM
35 | CC(C)=CCC(=O)Nc1cccnc1C(=O)Nc1nccs1 | 140 nM | 240 nM
36 | O=C(Nc1nccs1)c1ncccc1NC(=O)C1CCC1 | > 100000 nM | > 100000 nM
37 | O=C(Nc1cccnc1C(=O)Nc1nccs1)C1=CCCCC1 | 21900 nM | 970 nM
